PubChem BioAssay AID1963839 (Molecular Pharmacology Branch, DTP, NCI, 2024)

System: 817829-284-R-J1-PDC complex spheroid viability
Experiment: Anticancer human tumor 817829-284-R-J1-PDC patient-derived colon adenocarcinoma cell line growth inhibition [POLQ]
Details: for IC50: curve of first compound; for viability, T/C: stronger effect = lower value
Procedure, shortened: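 Three-cell-type spheroids modelling solid tumor plus stroma served as the readout system; POL inhibitors were tested individually and in combination, concentration ranges set by clinical Cmax where known.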

[1] = second compound 0.0316 µM, first compound 0.0316 µM
[2] = second compound 0.0316 µM, first compound 0.1 µM
[3] = second compound 0.0316 µM, first compound 0.316 µM
[4] = second compound 0.0316 µM, first compound 1 µM
[5] = second compound 0.0316 µM, first compound 3.16 µM
[6] = second compound 0.0316 µM, first compound 10 µM
[7] = second compound 0.1 µM, first compound 0.0316 µM
[8] = second compound 0.1 µM, first compound 0.1 µM
[9] = second compound 0.1 µM, first compound 0.316 µM
[10] = second compound 0.1 µM, first compound 1 µM
[11] = second compound 0.1 µM, first compound 3.16 µM
[12] = second compound 0.1 µM, first compound 10 µM
[13] = second compound 0.316 µM, first compound 0.0316 µM
[14] = second compound 0.316 µM, first compound 0.1 µM
[15] = second compound 0.316 µM, first compound 0.316 µM
[16] = second compound 0.316 µM, first compound 1 µM
[17] = second compound 0.316 µM, first compound 3.16 µM
[18] = second compound 0.316 µM, first compound 10 µM
[19] = second compound 1 µM, first compound 0.0316 µM
[20] = second compound 1 µM, first compound 0.1 µM
[21] = second compound 1 µM, first compound 0.316 µM
[22] = second compound 1 µM, first compound 1 µM
[23] = second compound 1 µM, first compound 3.16 µM
[24] = second compound 1 µM, first compound 10 µM
[25] = second compound 3.16 µM, first compound 0.0316 µM
[26] = second compound 3.16 µM, first compound 0.1 µM
[27] = second compound 3.16 µM, first compound 0.316 µM
[28] = second compound 3.16 µM, first compound 1 µM
[29] = second compound 3.16 µM, first compound 3.16 µM
[30] = second compound 3.16 µM, first compound 10 µM
[31] = second compound 10 µM, first compound 0.0316 µM
[32] = second compound 10 µM, first compound 0.1 µM
[33] = second compound 10 µM, first compound 0.316 µM
[34] = second compound 10 µM, first compound 1 µM
[35] = second compound 10 µM, first compound 3.16 µM
[36] = second compound 10 µM, first compound 10 µM
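Further: spheroids exposed to compounds for 7 days.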
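Wherever viability, T/C is given: 100% = DMSO vehicle-treated spheroids.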

## CC(=O)O[C@H]1C(=O)[C@@]2(C)[C@H]([C@H](OC(=O)c3ccccc3)[C@]3(O)C[C@H](OC(=O)[C@H](O)[C@@H](NC(=O)c4ccccc4)c4ccccc4)C(C)=C1C3(C)C)[C@]1(OC(C)=O)CO[C@@H]1C[C@@H]2O + Nc1ccc(C#CCN(C(=O)Cc2ncc(C(F)(F)F)cc2C(F)(F)F)c2ccc(F)cc2)nn1
Second compound 0.0316 µM
  IC50: < 9.49 nM
Second compound 0.1 µM
  IC50: < 9.49 nM
Second compound 0.316 µM
  IC50: < 9.49 nM
Second compound 1 µM
  IC50: < 9.49 nM
Second compound 3.16 µM
  IC50: < 9.49 nM
Second compound 10 µM
  IC50: < 9.49 nM
Second compound 0.0316 µM, first compound 0.00949 µM
  viability, T/C: 5.03%
Second compound 0.0316 µM, first compound 0.03 µM
  viability, T/C: 3.67%
Second compound 0.0316 µM, first compound 0.0949 µM
  viability, T/C: 3.6%
Second compound 0.0316 µM, first compound 0.3 µM
  viability, T/C: 4.54%
Second compound 0.0316 µM, first compound 0.949 µM
  viability, T/C: 3.38%
Second compound 0.0316 µM, first compound 3 µM
  viability, T/C: 3.49%
Second compound 0.1 µM, first compound 0.00949 µM
  viability, T/C: 4.54%
Second compound 0.1 µM, first compound 0.03 µM
  viability, T/C: 3.69%
Second compound 0.1 µM, first compound 0.0949 µM
  viability, T/C: 3.4%
Second compound 0.1 µM, first compound 0.3 µM
  viability, T/C: 3.32%
Second compound 0.1 µM, first compound 0.949 µM
  viability, T/C: 3.65%
Second compound 0.1 µM, first compound 3 µM
  viability, T/C: 3.64%
Second compound 0.316 µM, first compound 0.00949 µM
  viability, T/C: 4.71%
Second compound 0.316 µM, first compound 0.03 µM
  viability, T/C: 3.72%
Second compound 0.316 µM, first compound 0.0949 µM
  viability, T/C: 3.26%
Second compound 0.316 µM, first compound 0.3 µM
  viability, T/C: 3.47%
Second compound 0.316 µM, first compound 0.949 µM
  viability, T/C: 3.51%
Second compound 0.316 µM, first compound 3 µM
  viability, T/C: 3.52%
Second compound 1 µM, first compound 0.00949 µM
  viability, T/C: 4.2%
Second compound 1 µM, first compound 0.03 µM
  viability, T/C: 4.2%
Second compound 1 µM, first compound 0.0949 µM
  viability, T/C: 3.64%
Second compound 1 µM, first compound 0.3 µM
  viability, T/C: 3.16%
Second compound 1 µM, first compound 0.949 µM
  viability, T/C: 3.49%
Second compound 1 µM, first compound 3 µM
  viability, T/C: 3.91%
Second compound 3.16 µM, first compound 0.00949 µM
  viability, T/C: 3.91%
Second compound 3.16 µM, first compound 0.03 µM
  viability, T/C: 3.81%
Second compound 3.16 µM, first compound 0.0949 µM
  viability, T/C: 3.99%
Second compound 3.16 µM, first compound 0.3 µM
  viability, T/C: 3.89%
Second compound 3.16 µM, first compound 0.949 µM
  viability, T/C: 3.75%
Second compound 3.16 µM, first compound 3 µM
  viability, T/C: 3.61%
Second compound 10 µM, first compound 0.00949 µM
  viability, T/C: 4.68%
Second compound 10 µM, first compound 0.03 µM
  viability, T/C: 3.73%
Second compound 10 µM, first compound 0.0949 µM
  viability, T/C: 3.81%
Second compound 10 µM, first compound 0.3 µM
  viability, T/C: 3.76%
Second compound 10 µM, first compound 0.949 µM
  viability, T/C: 3.38%
Second compound 10 µM, first compound 3 µM
  viability, T/C: 3.83%

## COc1cc(C2c3cc4c(cc3C(OC3OC5COC(C)OC5C(O)C3O)C3COC(=O)C23)OCO4)cc(OC)c1O (stereo unspecified) + Nc1ccc(C#CCN(C(=O)Cc2ncc(C(F)(F)F)cc2C(F)(F)F)c2ccc(F)cc2)nn1
Second compound 0.0316 µM
  IC50: 68.1 nM
Second compound 0.1 µM
  IC50: 99.6 nM
Second compound 0.316 µM
  IC50: 76.2 nM
Second compound 1 µM
  IC50: 129 nM
Second compound 3.16 µM
  IC50: 83.6 nM
Second compound 10 µM
  IC50: 73.7 nM
[1]
  viability, T/C: 67.2%
[2]
  viability, T/C: 43.9%
[3]
  viability, T/C: 15.4%
[4]
  viability, T/C: 24.5%
[5]
  viability, T/C: 13.7%
[6]
  viability, T/C: 6.78%
[7]
  viability, T/C: 100%
[8]
  viability, T/C: 50.4%
[9]
  viability, T/C: 18%
[10]
  viability, T/C: 20.8%
[11]
  viability, T/C: 12.4%
[12]
  viability, T/C: 7.13%
[13]
  viability, T/C: 88%
[14]
  viability, T/C: 38.7%
[15]
  viability, T/C: 15.3%
[16]
  viability, T/C: 24.4%
[17]
  viability, T/C: 13.6%
[18]
  viability, T/C: 4.94%
[19]
  viability, T/C: 79.9%
[20]
  viability, T/C: 59.5%
[21]
  viability, T/C: 16.7%
[22]
  viability, T/C: 19.8%
[23]
  viability, T/C: 11.6%
[24]
  viability, T/C: 5.6%
[25]
  viability, T/C: 74.6%
[26]
  viability, T/C: 47.3%
[27]
  viability, T/C: 17.4%
[28]
  viability, T/C: 22.4%
[29]
  viability, T/C: 12%
[30]
  viability, T/C: 6.2%
[31]
  viability, T/C: 71.9%
[32]
  viability, T/C: 42.7%
[33]
  viability, T/C: 18.8%
[34]
  viability, T/C: 13.1%
[35]
  viability, T/C: 10.7%
[36]
  viability, T/C: 5.77%

## O=c1[nH]cc(F)c(=O)[nH]1 + Nc1ccc(C#CCN(C(=O)Cc2ncc(C(F)(F)F)cc2C(F)(F)F)c2ccc(F)cc2)nn1
Second compound 0.0316 µM
  IC50: 1250 nM
Second compound 0.1 µM
  IC50: 1770 nM
Second compound 0.316 µM
  IC50: 1710 nM
Second compound 1 µM
  IC50: 1600 nM
Second compound 3.16 µM
  IC50: 1370 nM
Second compound 10 µM
  IC50: 1300 nM
[1]
  viability, T/C: 99.6%
[2]
  viability, T/C: 110%
[3]
  viability, T/C: 95.6%
[4]
  viability, T/C: 54.1%
[5]
  viability, T/C: 34%
[6]
  viability, T/C: 28.1%
[7]
  viability, T/C: 96.4%
[8]
  viability, T/C: 102%
[9]
  viability, T/C: 84.4%
[10]
  viability, T/C: 64.4%
[11]
  viability, T/C: 35.8%
[12]
  viability, T/C: 27%
[13]
  viability, T/C: 100%
[14]
  viability, T/C: 98.8%
[15]
  viability, T/C: 93.3%
[16]
  viability, T/C: 63.9%
[17]
  viability, T/C: 34%
[18]
  viability, T/C: 23.7%
[19]
  viability, T/C: 108%
[20]
  viability, T/C: 89.3%
[21]
  viability, T/C: 93.5%
[22]
  viability, T/C: 60.5%
[23]
  viability, T/C: 33.7%
[24]
  viability, T/C: 26.1%
[25]
  viability, T/C: 86.2%
[26]
  viability, T/C: 108%
[27]
  viability, T/C: 77.2%
[28]
  viability, T/C: 55.8%
[29]
  viability, T/C: 38.1%
[30]
  viability, T/C: 27.4%
[31]
  viability, T/C: 92.1%
[32]
  viability, T/C: 92.8%
[33]
  viability, T/C: 85.5%
[34]
  viability, T/C: 54.8%
[35]
  viability, T/C: 33%
[36]
  viability, T/C: 26.7%
